Data published in paper PMC6294263 (Stem Cell Reports, 2018).

How the values were obtained:
[1] = test system: hiPSC-CMs (Cor.4U cardiomyocytes); assay: calcium transient-based hiPSC-CM (CTCM) assay with cardiac hazard scoring; settings: for arrhythmic (EAD-like) events: tested concentrations of Figure 5; for EAD-like events: control drugs at control concentration (E-4031 30 nM, dofetilide 3 nM, cetirizine 1 μM)
From the text: Fluorescence imaging of intracellular calcium dynamics (i.e., calcium transients) enabled the evaluation of the spontaneous beating properties of hiPSC-CMs (Figure 2A) using the following parameters: (1) calcium transient duration at 90% of decay following the peak amplitude (CTD90), (2) beat rate (BR) representing the number of calcium transients (i.e., beats) per minute, and (3) amplitude (Amp), representing the difference between the minimum and the maximum (peak) calcium signal.
Effects on hiPSC-CMs were evaluated after a 30-min incubation period and normalized against the respective baseline recording, yielding a Δ% change in CTD90, BR, and Amp.
Cells were cultured with Cor.4U culture medium (Ax-M-HC250) in a humidified incubator at 37°C and 5% CO2, with medium being changed once a day. On the day of the experiment, the culture medium was replaced with Tyrode's solution (Sigma, No. T2397) supplemented with 10 mM HEPES together with KCl to represent isokalemic (4.2 mM K^+) conditions.
Briefly, Cal-520 was incubated for 45 min followed by a washout and a 30-min recovery before starting the experiments.
The spontaneous beating activity of hiPSC-CMs was assessed through measurement of the Ca^2+ fluorescence signal integrated over the whole well.
First, the experimental plates were put into the FDSS/μCell to stabilize for 10 min. Next, a baseline recording was run for 3 min followed by compound addition. The effect of a compound was recorded (5-min recording time) around 15 and 30 min after compound addition. CTD90, BR, and Amp were quantified for baseline and 30-min compound effects as the median value of all beats (calcium transients) measured within a 1-min interval of the recording. The recording around 15 min was used only for observation of EADs or fibrillation-like events. EADs were manually monitored and evaluated. Beat stop was defined after 30 min in case BR was <5 beats/min. Wells that temporarily stopped beating during compound addition but recovered at the 30-min time point were not defined as beat stop.
The responses were measured at baseline and at 30 min.

hERG = settings: no reference given; read-out: half maximal inhibitory concentration [IC50] on hERG; cited from earlier work
[2] = 30-min incubation, reference drugs
[3] = reference drugs, tested concentrations of Figure 5 (selected to cover the therapeutic free Cmax), 30-min incubation
[4] = 3 nM (2-fold free Cmax), 30-min incubation, control drug over numerous studies
[5] = 0.1 μM, 30-min incubation, control drug over numerous studies, the rest in the high hazard zone
[6] = 5 μM (free Cmax), 30-min incubation, control drug over numerous studies

Structure (SMILES): CC[C@H]1[C@@H]2C[C@H]3[C@@H]4N(C)c5ccccc5[C@]45C[C@@H]([C@H]2[C@H]5O)N3[C@@H]1O [Ajmaline]
- arrhythmic (EAD-like) events ([1]; reference drugs): caused arrhythmic events

Structure (SMILES): CCN(CC)CCCN(c1ccccc1)C1Cc2ccccc2C1 [Aprindine]
- effect on CTD90 [1, 2]: CTD90 prolongation

Structure (SMILES): CC(C)NCC(O)COc1ccc(CC(N)=O)cc1 (centres unmarked) [Atenolol]
- cardiac hazard label [1, 3]: not identified for any potential hazard

Structure (SMILES): COC(=O)C1=C(C)NC(C)=C([N+](=O)[O-])C1c1ccccc1C(F)(F)F (centres unmarked) [BAYK8644]
- effect on amplitude (Amp) ([1]; 30-min incubation): increase the Amp
- cardiac hazard label [1, 3]: high

Structure (SMILES): C[N+](C)(C)CCOC(N)=O [Carbachol]
- cardiac hazard label [1, 3]: not identified for any potential hazard

Structure (SMILES): O=C(O)COCCN1CCN(C(c2ccccc2)c2ccc(Cl)cc2)CC1 (centres unmarked) [Cetirizine]
- studies identified as no hazard ([1]; 1 μM (16-fold free Cmax), 30-min incubation, control drug over numerous studies): 99%
- EAD-like events ([1]; 30-min incubation): not observed any EAD-like event

Structure (SMILES): CN(C)CCCC1(c2ccc(F)cc2)OCc2cc(C#N)ccc21 (centres unmarked) [Citalopram]
- cardiac hazard label [1, 3]: low

Structure (SMILES): CC(CCc1ccc(O)cc1)NCCc1ccc(O)c(O)c1 (centres unmarked) [Dobutamine]
- effect on beat rate (BR) [1, 2]: strong BR increase
- cardiac hazard label [1, 3]: low or high

Structure (SMILES): CN(CCOc1ccc(NS(C)(=O)=O)cc1)CCc1ccc(NS(C)(=O)=O)cc1 [Dofetilide]
- studies identified as high hazard [1, 4]: 14%
- studies identified as very high hazard [1, 4]: 80%
- EAD-like events ([1]; 30-min incubation): provoked such EAD-like events

Structure (SMILES): COc1ccc(C(=O)Nc2ccccc2CCC2CCCCN2C)cc1 (centres unmarked) [Encainide]
- arrhythmic (EAD-like) events ([1]; reference drugs): caused arrhythmic events

Structure (SMILES): CN(C)CCC[C@@]1(c2ccc(F)cc2)OCc2cc(C#N)ccc21 [Escitalopram]
- cardiac hazard label ([1]; at 3- to 10-fold the free Cmax): high

Structure (SMILES): O=C(Nc1ccc(Oc2ccccc2)cc1)c1cccc([N+](=O)[O-])c1 [ICA-105574]
- effect on CTD90 [1, 2]: CTD90 shortening
- cardiac hazard label [1, 3]: hazard identification

Structure (SMILES): CC(C)NCC(O)c1ccc(O)c(O)c1 (centres unmarked) [Isoprenaline]
- studies identified as low hazard [1, 5]: 70%
- effect on amplitude (Amp) ([1]; 30-min incubation): increase the Amp
- effect on beat rate (BR) [1, 2]: strong BR increase
- cardiac hazard label [1, 3]: low or high

Structure (SMILES): COc1cc2c(cc1OC)CC(=O)N(CCCN(C)C[C@H]1Cc3cc(OC)c(OC)cc31)CC2 [Ivabradine]
- IC50 (hERG): ~2.4 µM

Structure (SMILES): CC(C)(Oc1ccc(Cl)cc1)C(=O)NC1C2CC3CC1CC(NS(C)(=O)=O)(C3)C2 (centres unmarked) [JNJ-303]
- cardiac hazard label [1, 3]: cannot be easily detected

Structure (SMILES): CC1(C)Oc2ccc(C#N)cc2[C@@H](N2CCCC2=O)[C@@H]1O [Levcromakalim]
- effect on CTD90 [1, 2]: CTD90 shortening
- cardiac hazard label [1, 3]: potentially hazardous compounds

Structure (SMILES): CC(=O)c1c(O)c(C)c(O)c(Cc2c(O)c3c(c(C(=O)/C=C/c4ccccc4)c2O)OC(C)(C)C=C3)c1O [Mallotoxin]
- effect on CTD90 [1, 2]: CTD90 shortening
- cardiac hazard label [1, 3]: hazard identification

Structure (SMILES): Cc1cccc(C)c1OCC(C)N (centres unmarked) [Mexiletine]
- cardiac hazard label [1, 3]: low or high

Structure (SMILES): O=C(NCCO[N+](=O)[O-])c1cccnc1 [Nicorandil]
- cardiac hazard label [1, 3]: not shown to have any potential hazard risk

Structure (SMILES): COCCOC(=O)C1=C(C)NC(C)=C(C(=O)OC(C)C)C1c1cccc([N+](=O)[O-])c1 (centres unmarked) [Nimodipine]
- studies identified as low hazard [1, 5]: 80%
- effect on amplitude (Amp) ([1]; 30-min incubation): strongly decrease the Amp

Structure (SMILES): Cc1cc2c(s1)Nc1ccccc1N=C2N1CCN(C)CC1 [Olanzapine]
- cardiac hazard label ([1]; up to the highest tested concentration (100 nM), around the free Cmax): not identified with any hazard

Structure (SMILES): C[C@@H]1O[C@@H](O[C@H]2C[C@@H](O)[C@]3(CO)[C@H]4[C@H](O)C[C@]5(C)[C@@H](C6=CC(=O)OC6)CC[C@]5(O)[C@@H]4CC[C@]3(O)C2)[C@H](O)[C@H](O)[C@H]1O [Ouabain]
- cardiac hazard label [1, 3]: high

Structure (SMILES): O=C1NC(=O)C(c2ccccc2)(c2ccccc2)N1 [Phenytoin]
- studies identified as low hazard [1, 6]: 20%
- studies identified as no hazard [1, 6]: 78%
- incidence of beat stop (% of wells) ([1]; 5 μM, 30-min incubation): ≤ 50%
- cardiac hazard label [1, 3]: low or high

Structure (SMILES): CC(N/C(=N\C#N)Nc1ccncc1)C(C)(C)C (centres unmarked) [Pinacidil]
- effect on CTD90 [1, 2]: CTD90 shortening
- cardiac hazard label [1, 3]: potentially hazardous compounds

Structure (SMILES): CCCNCC(O)COc1ccccc1C(=O)CCc1ccccc1 (centres unmarked) [Propafenone]
- effect on CTD90 [1, 2]: CTD90 prolongation

Structure (SMILES): CCC(=O)O[C@](Cc1ccccc1)(c1ccccc1)[C@H](C)CN(C)C [Propoxyphene]
- effect on CTD90 [1, 2]: CTD90 prolongation

Structure (SMILES): C=C[C@H]1C[N@@]2CC[C@H]1C[C@@H]2[C@@H](O)c1ccnc2ccc(OC)cc12 [Quinidine]
- arrhythmic (EAD-like) events ([1]; reference drugs): caused arrhythmic events

Structure (SMILES): O=C(c1ccc(OCCN2CCCCC2)cc1)c1c(-c2ccc(O)cc2)sc2cc(O)ccc12 [Raloxifene]
- safety margin (tested concentration/free Cmax) at which a hazard was scored ([1]; 3–10 μM, negative control drug): ≥ 2500 fold the free Cmax
- concentrations not scored as no hazard ([1]; negative control drug, exception to the no hazard scoring): 3000 to 10000 nM

Structure (SMILES): CC(C)(C)NCC(O)c1ccc(O)c(CO)c1 (centres unmarked) [Salbutamol]
- effect on beat rate (BR) [1, 2]: strong BR increase
- cardiac hazard label [1, 3]: low or high

Structure (SMILES): O=C1NCCN1CCN1CCC(c2cn(-c3ccc(F)cc3)c3ccc(Cl)cc23)CC1 [Sertindole]
- safety margin (tested concentration/free Cmax) at which very high hazard (arrhythmic events) was scored [1]: approximately 625 fold the free Cmax
- cardiac hazard label ([1]; 1 μM, 30-min incubation): very high

Structure (SMILES): CCCCCNC(=N)N/N=C/c1c[nH]c2ccc(OC)cc12 [Tegaserod]
- cardiac hazard label [1, 3]: high
